Experimental data: patent publication US20200289482A1, “CYSTIC FIBROSIS TRANSMEMBRANE CONDUCTANCE REGULATOR MODULATORS FOR TREATING AUTOSOMAL DOMINANT POLYCYSTIC KIDNEY DISEASE” (The Johns Hopkins University, priority 2017, published 2020)

How the values were obtained:
Assay type in all cases: cell-based, mouse
cAMP in PN cells = assay: Cyclic AMP enzyme immunoassay in cells; details: for increase of cAMP activity in PN cells: treating PN cells with forskolin or IBMX
Experimental: FIG. 4A, FIG. 4B, FIG. 4C, FIG. 4D, and FIG. 4E show (FIG. 4A-FIG. 4B) cAMP levels are reduced by VX-809. (FIG. 4A) cAMP levels in mouse tissue were reduced by VX-809. The kidney samples (n=6) analyzed were taken from those depicted in FIG. 1. (FIG. 4B) Confluent PN and PH cells were treated with VX-809 (10 μM) or DMSO for 16 h and then treated with forskolin (100 μM) for 30 min before the cells were harvested for the assay. Columns represent means±SEM. Statistical analysis was performed using a two-tailed Student's t-test. Each set of data is from three individual wells; Note that resting cAMP is greater in PN vs PH cells as previously shown (25). Also note that forskolin caused a large increase in cAMP. A smaller increase occurred with IBMX. However, the increase induced by forskolin alone was similar to that by IBMX plus forskolin. […] (FIG. 4C, FIG. 4D, and FIG. 4E) Adenylyl cyclase expression. (FIG. 4C) Western blot showing the expression of adenylyl cyclase (AC) 6 and AC3 in treated and control PN cells. (FIG. 4D-FIG. 4E) Columns represent means±SEM of the AC3 and AC6 expression. The data were analyzed by non-parametric t-test. The experiment was repeated four times. For all graphs, *P<0.05, **P<0.01, and ***P<0.001;
It has been shown previously in both animal and cell culture models of ADPKD that cells lacking functional PC1 have elevated cAMP levels when compared to normal (24). To assess the effect of CFTR correctors, cAMP activity was measured in PC1 conditional knockout mouse kidneys and in PN cells that were either left untreated or treated with VX-809. […] Cells were treated with forskolin, which increased cAMP levels drastically (FIG. 4B). […] Treating PN cells with forskolin or IBMX (FIG. 4B) increased the cAMP activity by ˜10-fold.
Confluent cells were treated with VX-809 (10 μM) or DMSO for 16 h before being harvested for assay. Cyclic AMP levels were measured with a direct cAMP Enzyme Immunoassay Kit (Sigma, # CA200) according to the manufacturer's protocol. The results are expressed as pmole/ml. Statistical analysis was performed using a two-tailed Student's t-test.

Hsp70 = assay: Cycloheximide chase, disappearance of Hsp70 in PN cells; details: cycloheximide 25 μM, 8 h
Experimental: (§1) FIG. 9A, FIG. 9B, FIG. 9C, FIG. 9D, FIG. 9E, FIG. 9F, FIG. 9G, and FIG. 9H show Hsp27, HSp70, and Hsp90 expression in PN cells treated with VX-809 and/or cycloheximide. (A) Pkd1 null (PN) cells were treated with VX-809 (10 μM) and/or with cycloheximide (25 μM) for indicated time points before being harvested for the assay. (FIG. 9A) Western blot showing expression of Hsp27, Hsp70, and Hsp90 in VX-809-(16 h), cycloheximide-treated, or control PN cells. ((FIG. 9B. (FIG. 9C, and (FIG. 9D) Columns represent averages±standard errors of Hsp27, Hsp70, and Hsp90 expression in cells treated with VX-809 and/or cycloheximide. ((FIG. 9E) Western blot showing expression of Hsp27, Hsp70, and Hsp90 in PN cells treated with VX-809+cycloheximide or control PN cells. ((FIG. 9F, (FIG. 9G, and (FIG. 9H) Columns represent averages±standard errors of Hsp27, Hsp70, and Hsp90 expression in cells treated only with cycloheximide or in control PN cells. Data were analyzed by non-parametric t-test. The experiments were repeated 3-5 times. *P<0.05, **P<0.01;
(§2) To gain more insight into the mechanism whereby VX-809 alters Hsp protein levels, translation was inhibited by using cycloheximide (35) and the disappearance of the three Hsps was monitored. […] Hsp 90 was reduced by approximately 25%, and Hsp27 was unchanged.

Hsp90 = assay: Cycloheximide chase, disappearance of Hsp90 in PN cells; details: cycloheximide 25 μM, 8 h
Experimental: as §1, §2

Hsp27 = assay: Cycloheximide chase, disappearance of Hsp27 in PN cells; details: cycloheximide 25 μM, 8 h
Experimental: as §1, §2

SMILES | increase of cAMP activity in PN cells (cAMP in PN cells) [fold] | steady-state level of Hsp70 after cycloheximide alone (Hsp70) | steady-state level of Hsp90 after cycloheximide alone (Hsp90) | steady-state level of Hsp27 after cycloheximide alone (Hsp27) | forskolin elevates cAMP activity (cAMP in PN cells; as restated at the end of Example 4) [fold]
CC(C)Cn1c(=O)n(C)c(=O)c2[nH]cnc21 [IBMX, 3-isobutyl-1-methylxanthine] | ~10 |  |  |  | 
C[C@@H]1C[C@@H]([C@H](O)CC2CC(=O)NC(=O)C2)C(=O)[C@@H](C)C1 [cycloheximide] |  | unchanged over the 8 h | unchanged over the 8 h | unchanged over the 8 h | 
C=C[C@@]1(C)CC(=O)[C@]2(O)[C@@]3(C)[C@@H](O)CCC(C)(C)[C@@H]3[C@H](O)[C@H](OC(C)=O)[C@@]2(C)O1 [forskolin] | ~10 |  |  |  | ~500
